Results as given in ChEMBL document CHEMBL4229333, “Effects of rigidity on the selectivity of protein kinase inhibitors” (Eur J Med Chem, 2018).
Active and inactive are the calls of the source. The rule behind the calls is not given here.

Legend:
[1] = biological target: Ribosomal protein S6 kinase beta-1 (Homo sapiens) (UniProt P23443); assay: Inhibition of P70S6K1 (unknown origin) at 1 uM by mobility shift microfluidics platform based assay relative to control
[2] = biological target: Insulin-like growth factor 1 receptor (Homo sapiens) (UniProt P08069); assay: Inhibition of IGF1R (unknown origin) at 1 uM by mobility shift microfluidics platform based assay relative to control
[3] = biological target: T1, Tyrosine-protein kinase ABL1 (Homo sapiens, UniProt P00519); assay: Inhibition of ABL (unknown origin) at 30 nM by phosphocellulose paper disk assay
T1 sequence (P00519 whole entry): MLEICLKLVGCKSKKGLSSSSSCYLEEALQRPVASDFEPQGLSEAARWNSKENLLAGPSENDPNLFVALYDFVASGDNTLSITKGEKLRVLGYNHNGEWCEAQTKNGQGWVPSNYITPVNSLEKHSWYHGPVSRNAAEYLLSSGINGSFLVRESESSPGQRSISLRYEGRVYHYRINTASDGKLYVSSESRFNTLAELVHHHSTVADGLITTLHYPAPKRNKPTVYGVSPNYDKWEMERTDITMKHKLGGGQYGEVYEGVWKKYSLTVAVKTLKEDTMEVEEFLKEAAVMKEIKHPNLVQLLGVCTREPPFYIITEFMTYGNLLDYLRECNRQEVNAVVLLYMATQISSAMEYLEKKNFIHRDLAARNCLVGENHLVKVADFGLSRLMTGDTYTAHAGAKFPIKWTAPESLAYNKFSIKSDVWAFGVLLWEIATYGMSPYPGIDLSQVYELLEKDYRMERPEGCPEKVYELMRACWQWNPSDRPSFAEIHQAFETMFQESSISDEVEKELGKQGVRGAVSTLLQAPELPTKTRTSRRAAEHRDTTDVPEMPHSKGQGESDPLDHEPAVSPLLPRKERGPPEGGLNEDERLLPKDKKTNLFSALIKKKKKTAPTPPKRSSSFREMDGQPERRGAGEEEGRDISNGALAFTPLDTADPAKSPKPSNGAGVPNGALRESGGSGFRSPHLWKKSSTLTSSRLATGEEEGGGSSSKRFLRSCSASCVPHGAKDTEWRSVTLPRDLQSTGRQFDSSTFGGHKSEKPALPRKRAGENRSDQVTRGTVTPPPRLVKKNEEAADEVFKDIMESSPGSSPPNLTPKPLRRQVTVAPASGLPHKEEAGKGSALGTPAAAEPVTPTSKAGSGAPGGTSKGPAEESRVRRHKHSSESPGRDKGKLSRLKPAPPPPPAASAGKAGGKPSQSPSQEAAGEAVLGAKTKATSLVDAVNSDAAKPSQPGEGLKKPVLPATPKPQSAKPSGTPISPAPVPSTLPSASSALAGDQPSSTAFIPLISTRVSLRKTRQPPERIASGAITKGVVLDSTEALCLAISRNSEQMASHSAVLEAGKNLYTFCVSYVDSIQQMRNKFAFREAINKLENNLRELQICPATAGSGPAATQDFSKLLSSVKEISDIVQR

[4] = biological target: Death-associated protein kinase 3 (Homo sapiens) (UniProt O43293); assay: Inhibition of DAPK3 (unknown origin) at 1 uM by mobility shift microfluidics platform based assay relative to control
Sequence of Death-associated protein kinase 3 (Homo sapiens) (O43293 whole entry, looked up): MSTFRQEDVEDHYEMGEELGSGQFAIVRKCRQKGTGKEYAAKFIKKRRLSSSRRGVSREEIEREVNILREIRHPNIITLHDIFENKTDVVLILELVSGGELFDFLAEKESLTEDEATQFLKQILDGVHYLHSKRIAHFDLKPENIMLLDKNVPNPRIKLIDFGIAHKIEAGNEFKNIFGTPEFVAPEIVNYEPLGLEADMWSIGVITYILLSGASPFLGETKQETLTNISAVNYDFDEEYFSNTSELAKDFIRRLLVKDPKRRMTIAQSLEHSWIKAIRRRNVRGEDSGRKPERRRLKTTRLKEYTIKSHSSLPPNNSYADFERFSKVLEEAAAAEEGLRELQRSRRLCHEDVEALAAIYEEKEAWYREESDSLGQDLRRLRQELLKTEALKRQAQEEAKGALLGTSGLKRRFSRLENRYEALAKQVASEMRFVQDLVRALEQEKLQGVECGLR

[5] = biological target: Serine/threonine-protein kinase Chk1 (Homo sapiens) (UniProt O14757); assay: Inhibition of CHEK1 (unknown origin) at 1 uM by mobility shift microfluidics platform based assay relative to control
Sequence of Serine/threonine-protein kinase Chk1 (Homo sapiens) (O14757 whole entry, canonical isoform): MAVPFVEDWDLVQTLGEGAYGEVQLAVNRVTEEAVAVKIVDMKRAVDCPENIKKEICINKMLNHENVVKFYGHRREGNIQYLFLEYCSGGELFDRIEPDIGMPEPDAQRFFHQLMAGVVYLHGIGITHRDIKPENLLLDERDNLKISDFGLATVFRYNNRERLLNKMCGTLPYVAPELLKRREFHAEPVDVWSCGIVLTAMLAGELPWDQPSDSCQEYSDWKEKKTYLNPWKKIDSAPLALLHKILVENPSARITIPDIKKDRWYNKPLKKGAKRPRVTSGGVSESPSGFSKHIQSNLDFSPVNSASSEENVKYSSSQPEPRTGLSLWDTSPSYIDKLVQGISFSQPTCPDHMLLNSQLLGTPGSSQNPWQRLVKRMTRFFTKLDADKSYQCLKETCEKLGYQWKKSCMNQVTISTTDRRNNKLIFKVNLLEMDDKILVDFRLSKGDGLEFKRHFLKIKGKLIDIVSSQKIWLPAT

[6] = biological target: Casein kinase I isoform epsilon (Homo sapiens) (UniProt P49674); assay: Inhibition of CK1-epsilon (unknown origin) at 1 uM by mobility shift microfluidics platform based assay relative to control
Sequence of Casein kinase I isoform epsilon (Homo sapiens) (P49674 whole entry, looked up, canonical isoform): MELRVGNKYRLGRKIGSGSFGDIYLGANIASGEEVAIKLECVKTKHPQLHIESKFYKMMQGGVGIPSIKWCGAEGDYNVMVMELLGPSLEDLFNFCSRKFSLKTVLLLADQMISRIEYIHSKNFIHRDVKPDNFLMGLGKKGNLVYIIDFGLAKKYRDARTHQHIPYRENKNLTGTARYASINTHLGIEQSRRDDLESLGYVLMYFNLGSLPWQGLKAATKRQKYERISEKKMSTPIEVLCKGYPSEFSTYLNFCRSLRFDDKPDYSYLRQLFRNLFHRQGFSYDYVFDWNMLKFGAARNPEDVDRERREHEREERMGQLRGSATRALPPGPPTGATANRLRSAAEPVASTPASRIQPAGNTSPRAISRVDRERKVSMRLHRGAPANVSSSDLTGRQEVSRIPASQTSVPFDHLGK

[7] = biological target: cGMP-dependent protein kinase 1 (Homo sapiens) (UniProt Q13976); assay: Inhibition of PRKG1 (unknown origin) at 1 uM by mobility shift microfluidics platform based assay relative to control
Sequence of cGMP-dependent protein kinase 1 (Homo sapiens) (Q13976 whole entry): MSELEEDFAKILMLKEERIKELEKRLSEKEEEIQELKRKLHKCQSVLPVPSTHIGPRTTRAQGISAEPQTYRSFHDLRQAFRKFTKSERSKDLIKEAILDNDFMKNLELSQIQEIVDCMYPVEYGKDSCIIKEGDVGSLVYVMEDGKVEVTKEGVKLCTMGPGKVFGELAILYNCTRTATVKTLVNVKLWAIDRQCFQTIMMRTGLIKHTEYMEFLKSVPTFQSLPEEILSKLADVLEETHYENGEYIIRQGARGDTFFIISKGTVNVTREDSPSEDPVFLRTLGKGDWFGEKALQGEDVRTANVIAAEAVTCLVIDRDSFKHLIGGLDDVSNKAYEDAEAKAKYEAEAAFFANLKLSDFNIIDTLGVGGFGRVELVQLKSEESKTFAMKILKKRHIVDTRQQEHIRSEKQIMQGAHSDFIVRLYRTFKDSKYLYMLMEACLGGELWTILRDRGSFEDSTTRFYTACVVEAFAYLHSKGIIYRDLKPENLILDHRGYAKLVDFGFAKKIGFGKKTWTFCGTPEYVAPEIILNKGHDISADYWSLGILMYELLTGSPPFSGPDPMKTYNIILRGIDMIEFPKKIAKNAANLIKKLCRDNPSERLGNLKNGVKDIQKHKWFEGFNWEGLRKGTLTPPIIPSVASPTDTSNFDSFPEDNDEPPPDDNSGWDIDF

[8] = biological target: Serine/threonine-protein kinase Sgk2 (Homo sapiens) (UniProt Q9HBY8); assay: Inhibition of SGK2 (unknown origin) at 1 uM by mobility shift microfluidics platform based assay relative to control
[9] = biological target: High affinity nerve growth factor receptor (Homo sapiens) (UniProt P04629); assay: Inhibition of TRKA (unknown origin) at 1 uM by mobility shift microfluidics platform based assay relative to control
[10] = biological target: AMP-activated protein kinase (AMPK) alpha-1/beta-1/gamma-1 (Homo sapiens) (UniProt P54619+Q9Y478+Q13131); assay: Inhibition of AMP-A1B1G1 (unknown origin) at 1 uM by mobility shift microfluidics platform based assay relative to control; format: protein-complex assay
[11] = biological target: T1, Tyrosine-protein kinase ABL1; assay: Inhibition of ABL (unknown origin) by phosphocellulose paper disk assay
[12] = biological target: Tyrosine-protein kinase ZAP-70 (Homo sapiens) (UniProt P43403); assay: Inhibition of ZAP70 (unknown origin) at 1 uM by mobility shift microfluidics platform based assay relative to control
Sequence of Tyrosine-protein kinase ZAP-70 (Homo sapiens) (P43403 whole entry): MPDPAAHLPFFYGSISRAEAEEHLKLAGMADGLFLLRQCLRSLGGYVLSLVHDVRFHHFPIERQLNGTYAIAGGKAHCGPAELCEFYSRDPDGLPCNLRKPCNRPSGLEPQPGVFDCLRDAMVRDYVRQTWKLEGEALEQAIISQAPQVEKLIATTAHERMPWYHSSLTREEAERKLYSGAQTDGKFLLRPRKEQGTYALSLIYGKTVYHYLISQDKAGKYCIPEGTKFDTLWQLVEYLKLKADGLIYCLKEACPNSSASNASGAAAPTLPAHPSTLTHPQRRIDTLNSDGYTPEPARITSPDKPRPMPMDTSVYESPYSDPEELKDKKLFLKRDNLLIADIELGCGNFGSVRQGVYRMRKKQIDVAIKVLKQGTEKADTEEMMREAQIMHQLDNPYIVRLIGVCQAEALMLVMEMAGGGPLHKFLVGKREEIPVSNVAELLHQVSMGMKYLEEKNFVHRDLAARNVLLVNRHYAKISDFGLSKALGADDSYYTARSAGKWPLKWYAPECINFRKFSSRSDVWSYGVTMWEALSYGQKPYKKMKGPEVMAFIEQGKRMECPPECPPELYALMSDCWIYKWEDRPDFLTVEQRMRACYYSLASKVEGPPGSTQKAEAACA

[13] = biological target: AMPK alpha2/beta1/gamma1 (Homo sapiens) (UniProt P54646+P54619+Q9Y478); assay: Inhibition of AMP-A2B1G1 (unknown origin) at 1 uM by mobility shift microfluidics platform based assay relative to control; format: protein-complex assay
[14] = biological target: Ribosomal protein S6 kinase alpha-5 (Homo sapiens) (UniProt O75582); assay: Inhibition of MSK1 (unknown origin) at 1 uM by mobility shift microfluidics platform based assay relative to control
[15] = biological target: Insulin receptor (Homo sapiens) (UniProt P06213); assay: Inhibition of INSR (unknown origin) at 1 uM by mobility shift microfluidics platform based assay relative to control
[16] = biological target: Tyrosine-protein kinase Lyn (Homo sapiens) (UniProt P07948); assay: Inhibition of LYNA (unknown origin) at 1 uM by mobility shift microfluidics platform based assay relative to control
Sequence of Tyrosine-protein kinase Lyn (Homo sapiens) (P07948 2-512 limits assumed): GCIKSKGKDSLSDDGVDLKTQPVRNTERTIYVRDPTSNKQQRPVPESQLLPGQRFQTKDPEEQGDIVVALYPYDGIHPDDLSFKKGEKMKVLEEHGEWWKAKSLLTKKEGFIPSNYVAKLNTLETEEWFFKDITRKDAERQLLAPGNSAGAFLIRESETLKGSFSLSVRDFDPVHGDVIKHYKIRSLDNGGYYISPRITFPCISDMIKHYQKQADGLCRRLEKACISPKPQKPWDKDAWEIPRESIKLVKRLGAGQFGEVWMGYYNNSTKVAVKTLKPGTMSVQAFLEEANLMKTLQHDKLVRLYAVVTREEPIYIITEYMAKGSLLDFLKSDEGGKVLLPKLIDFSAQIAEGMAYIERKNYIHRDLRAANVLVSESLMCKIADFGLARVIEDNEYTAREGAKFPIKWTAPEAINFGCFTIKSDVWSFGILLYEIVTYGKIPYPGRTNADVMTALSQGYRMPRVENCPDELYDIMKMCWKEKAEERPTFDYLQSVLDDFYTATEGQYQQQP

[17] = biological target: Casein kinase I isoform gamma-3 (Homo sapiens) (UniProt Q9Y6M4); assay: Inhibition of CK1-gamma3 (unknown origin) at 1 uM by mobility shift microfluidics platform based assay relative to control
[18] = biological target: Bcr/Abl fusion protein (Homo sapiens, UniProt P00519); assay: Inhibition of BCR-ABL (unknown origin) expressed in mouse BA/F3 cells assessed as reduction in ABL phosphorylation at Y412 residue incubated for 3 hrs by immunoblotting assay; format: cell-based

Sequence of Ribosomal protein S6 kinase beta-1 (Homo sapiens) (P23443 whole entry, looked up): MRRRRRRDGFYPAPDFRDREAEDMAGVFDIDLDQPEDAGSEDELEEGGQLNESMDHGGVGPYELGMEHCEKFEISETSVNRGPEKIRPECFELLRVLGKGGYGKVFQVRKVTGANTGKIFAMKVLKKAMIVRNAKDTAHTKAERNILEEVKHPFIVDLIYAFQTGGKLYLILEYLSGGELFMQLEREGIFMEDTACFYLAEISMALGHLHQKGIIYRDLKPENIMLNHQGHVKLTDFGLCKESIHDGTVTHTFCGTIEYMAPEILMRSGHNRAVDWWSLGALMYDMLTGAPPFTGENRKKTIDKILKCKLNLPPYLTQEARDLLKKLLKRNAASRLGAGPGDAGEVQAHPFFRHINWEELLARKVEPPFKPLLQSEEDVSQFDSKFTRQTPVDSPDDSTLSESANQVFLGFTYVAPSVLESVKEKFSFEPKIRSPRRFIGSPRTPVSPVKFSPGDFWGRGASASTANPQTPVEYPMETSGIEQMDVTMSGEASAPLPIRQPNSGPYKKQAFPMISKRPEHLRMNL

| Structure (SMILES) | inhibition [1] [%] | inhibition [2] [%] | inhibition [3] | inhibition [4] [%] | inhibition [5] [%] | inhibition [6] [%] | inhibition [7] [%] | inhibition [8] [%] | inhibition [9] [%] | inhibition [10] [%] | IC50 [11] [nM] | inhibition [12] [%] | inhibition [13] [%] | inhibition [14] [%] | inhibition [15] [%] | inhibition [16] [%] | inhibition [17] [%] | IC50 [18] [nM] |
| --- | --- | --- | --- | --- | --- | --- | --- | --- | --- | --- | --- | --- | --- | --- | --- | --- | --- | --- |
| CC(C)n1nc(C#Cc2cccc3cc(-c4cccc(C(F)(F)F)c4)ncc23)c2c(N)ncnc21 | 1 | 2 | inactive | 11 | -1 | 8 | 1 | -2 | 2 | 0 | 3 | 4 | 1 | 5 | 5 | 95 | – | – |
| CC(C)n1nc(C#Cc2cccc(NC(=O)c3cccc(C(F)(F)F)c3)c2)c2c(N)ncnc21 | 5 | 1 | – | 11 | -1 | 27 | 1 | 0 | 22 | 2 | – | 3 | 3 | – | 12 | 99 | 2 | 7.5 |
